Like-named read-outs stand apart in the source and are kept apart here.
Columns and labels:
[1] = target: T1, HCV NS5B polymerase (His-tagged, C-terminal 21 amino acid deleted NS5B, HC-J4) (Hepatitis C virus genotype 1b, UniProt O92972); assay: NS5b polymerase assay (biochemical RdRp assay, 3H-GTP incorporation, SPA beads); set-up: species or system HCV genotype 1b
T1 construct: The cDNA encoding NS5B amino acid 1-570 (HC-J4, genotype 1b); His tag (His6, from pET-21b) (C); made in house; host or cells: E. coli BL21 (DE3)
T1 sequence (O92972 2417-3000, looked up, stated change not applied): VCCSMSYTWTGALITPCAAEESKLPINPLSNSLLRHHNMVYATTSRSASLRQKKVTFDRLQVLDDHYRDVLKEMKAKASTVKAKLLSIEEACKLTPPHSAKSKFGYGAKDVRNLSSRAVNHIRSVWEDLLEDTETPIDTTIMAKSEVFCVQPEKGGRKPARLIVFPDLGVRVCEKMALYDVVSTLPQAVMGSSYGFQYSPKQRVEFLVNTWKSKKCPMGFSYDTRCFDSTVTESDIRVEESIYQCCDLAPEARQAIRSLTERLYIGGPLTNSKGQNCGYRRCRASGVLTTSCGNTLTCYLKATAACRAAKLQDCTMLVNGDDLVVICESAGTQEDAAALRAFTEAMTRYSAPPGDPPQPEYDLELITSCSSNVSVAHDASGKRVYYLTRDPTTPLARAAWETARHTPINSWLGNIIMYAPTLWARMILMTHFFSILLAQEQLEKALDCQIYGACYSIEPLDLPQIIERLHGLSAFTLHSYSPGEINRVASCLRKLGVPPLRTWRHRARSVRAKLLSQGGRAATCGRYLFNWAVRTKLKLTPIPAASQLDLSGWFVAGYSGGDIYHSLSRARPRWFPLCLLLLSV
Summary of the method: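 His-tagged C-terminal-21-aa-deleted NS5B (genotype 1b, HC-J4) at 200 nM was preincubated 15 min at RT with compound on 5′-biotinylated oligo(rG13)/poly(rC) template/primer before NTPs. Reaction with 600 nM GTP plus 0.1 μCi 3H-GTP and 5 mM MgCl2 in Tris pH 7.5 ran 2 h at 25 °C. Stopped with EDTA/SPA beads for incorporation counting.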

[2] = system: HCV replicon RNA replication in Huh-7 luc/neo (Huh-Luc) cells; assay: HCV replicon assay (stable replicon cell reporter assay, luciferase read-out); assay type: cell-based, HCV type 1b
Summary of the method: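 Huh-7 cells stably carry a bicistronic HCV 1b NS3-NS5B subgenomic replicon with firefly luciferase and neo markers. Cells were plated with compound across a concentration range and incubated three days. Replication was measured as luciferase activity to give dose-response curves.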

[3] = NS5B Polymerase Assay IC50 (μM)
[4] = Hepatitis C virus, Huh-7, 72 h, read-out: Replicon Assay EC50 (μM), Huh-Luc cells, incubation of three days, luciferase activity
[5] = NS5B Polymerase Assay IC50, 200 nM enzyme, 3H-GTP incorporation, 2 h at 25° C.
[6] = Hepatitis C virus, Huh-7, 72 h, read-out: Replicon Assay EC50, Huh-Luc cells, three days incubation, luciferase activity
[7] = 200 nM enzyme, 3H-GTP incorporation, 2 h at 25° C., read-out: NS5B Polymerase Assay IC50
[8] = Huh-Luc cells, three days incubation, luciferase activity, read-out: Replicon Assay EC50

Row | SMILES | IC50 [1, 3] [µM] | EC50 [2, 4] [µM] | IC50 [1, 5] [µM] | EC50 [2, 6] [µM] | also measured
1 | COc1cc(C2Nc3ccccc3NC3=C2C(=O)CC(c2ccccc2)C3)cc(OC)c1OC (centres unmarked) [compound 339] | > 42.7 | 9.15 |  |  | 
2 | CC(=O)N1c2ccccc2NC2=C(C(=O)CC(C)(C)C2)C1c1ccc(Cl)cc1Cl (single isomer, unassigned) [compound 36, 10-Acetyl-11-(2,4-dichlorophenyl)-2,3,4,5,10,11-hexahydro-3,3-dimethyl-1H-dibenzo[b,e][1,4]diazepin-1-one] |  |  | > 41.3 | 17 | 
3 | CC1(C)CC(=O)C2=C(C1)Nc1ccccc1NC2c1ccc(OCc2ccccc2)cc1 (centres unmarked) [compound 426] | 30.8 | 7.31 |  |  | 
4 | CCCCCC(=O)N1c2ccccc2NC2=C(C(=O)CC(c3ccc(Cl)cc3)C2)C1c1ccc(Cl)cc1 (centres unmarked) [compound 164] |  |  | > 33.3 | 18.5 | 
5 | Cc1ccc(C2Nc3ccccc3NC3=C2C(=O)CC(c2ccccc2Cl)C3)cc1 (centres unmarked) [compound 395] | > 42.7 | 9.91 |  |  | 
6 | CC(C)Oc1ccc(C2C3=C(CC(C)(C)CC3=O)Nc3ccccc3N2C(=O)C(F)(F)F)cc1 (centres unmarked) [compound 100] |  |  | > 42.7 | 3.6 | 
7 | CC(=O)N1c2ccccc2NC2=C(C(=O)CC(C)(C)C2)[C@H]1c1ccc(OCc2ccccc2)cc1 (single isomer, unassigned) [compound 301] |  |  | 1.52 | 15.3 | 
8 | CC(=O)N1c2ccccc2NC2=C(C(=O)CC(C)(C)C2)C1c1ccc(OCc2ccccc2)cc1 (centres unmarked) [compound 42] |  |  |  |  | IC50 [1, 7]: 5.68 µM; EC50 [2, 8]: 6.39 µM
9 | CCOc1cc(C2Nc3ccccc3NC3=C2C(=O)CC(c2ccc(OC)cc2)C3)cc(Br)c1OC (centres unmarked) [compound 406] | > 42.7 | 7.29 |  |  | 
10 | COc1ccc(C2C3=C(CC(C)(C)CC3=O)Nc3ccccc3N2C(C)=O)cc1OC (centres unmarked) [compound 119] |  |  | > 42.7 | > 32 | 
11 | CCOc1cc(C2Nc3ccccc3NC3=C2C(=O)CC(c2ccc(OC)cc2)C3)ccc1OC(C)=O (centres unmarked) [compound 386] | > 42.7 | > 29.6 |  |  | 
12 | CC1(C)CC(=O)C2=C(C1)Nc1ccccc1N(C(=O)c1ccccc1)C2c1c(F)cccc1Cl (centres unmarked) [compound 37] |  |  | > 42.7 | 6.93 | 
13 | CC1(C)CC(=O)C2=C(C1)Nc1ccccc1NC2c1ccc(OCc2ccccc2)c(Cl)c1 (centres unmarked) [compound 439, 11-[4-benzyloxy-3-chlorophenyl]-3,3-dimethyl-2,3,4,5,10,11-hexahydro-1H-dibenzo[b,e][1,4]diazepin-1-one] | 3.63 | 4.33 |  |  | 
14 | CCCCCC(=O)N1c2ccccc2NC2=C(C(=O)CC(c3ccc(OC)c(OC)c3)C2)C1c1cccc([N+](=O)[O-])c1 (mixture of isomers) [compound 181] |  |  |  |  | IC50 [1, 7]: > 33.3 µM; EC50 [2, 8]: 2.41 µM
15 | COc1ccc(C2CC(=O)C3=C(C2)Nc2ccccc2NC3c2ccc(Cl)cc2)cc1 (centres unmarked) [compound 416] | > 33.3 | 11.2 |  |  | 
16 | CC1(C)CC(=O)C2=C(C1)Nc1ccccc1NC2c1c(F)cccc1Cl (centres unmarked) [compound 428] | > 42.7 | 16 |  |  | 
17 | CC(=O)N1c2c(C)cccc2NC2=C(C(=O)CC(C)(C)C2)C1c1ccc(Cl)cc1Cl (centres unmarked) [compound 314] |  |  | 4.43 | 3 | 
18 | COc1ccc(OC)c(C2C3=C(CC(C)(C)CC3=O)Nc3ccccc3N2C(C)=O)c1 (centres unmarked) [compound 118] |  |  | > 42.7 | > 32 | 
19 | COc1ccc([C@@H]2CC(=O)C3=C(C2)Nc2ccccc2N[C@H]3c2cc3c(cc2[N+](=O)[O-])OCO3)cc1OC [compound 487] | > 42.7 | 3.15 |  |  | 
20 | CC(=O)N1c2ccccc2NC2=C(C(=O)CC(C)(C)C2)C1c1cccnc1 (centres unmarked) [compound 258] |  |  | > 42.7 | > 32 | 
21 | CC(=O)N1c2ccccc2NC2=C(C(=O)CC(C)(C)C2)C1c1c(F)cccc1Cl (centres unmarked) [compound 24] |  |  | > 42.7 | 13 | 
22 | COc1cccc2c1NC1=C(C(=O)CC(C)(C)C1)C(c1ccc(Cl)cc1Cl)N2C(C)=O (centres unmarked) [compound 320] |  |  | 6.77 | 33 | 

Reference: patent publication US20090221559A1 (priority 2005, published 2009)
